How the values were obtained:
[1] = test system: Long Evans rats; test: Spontaneous locomotor activity; format: in vivo, rat; details: 10 minutes prior to placement in chambers
Description: (§1) These studies were performed using Long Evans rats using standard protocols. Locomotor activity chambers measuring 43×43×30 cm (l×w×h) were used for the locomotor activity experiments. Each chamber was equipped with eight photo-emitters positioned along the length of the chamber 6 cm above the floor, each paired directly opposite a photocell. Locomotor activity counts were registered when adjacent beams were broken consecutively. Before receiving any drug, the animals (n=96) were placed in locomotor activity chambers for habituation, for 2 hours per day for 3 consecutive days. Based on the locomotor activity score obtained during the third habituation session, animals were assigned into one of […] treatment groups. […] For the 113 alone experiments, each of the four groups received one of 4 doses of 113 (0, 3.75, 7.5 or 15 mg/kg) 10 minutes prior to placement in the activity chambers. For the 113 cocaine interaction experiments, each of 4 groups were injected with one of the 4 doses of the compound (0, 3.75, 7.5 or 15 mg/kg) 10 minutes before receiving 10 mg/kg of cocaine as the second injection. […] The locomotor counts in the 113 alone and 113/cocaine experiments were analyzed using two separate mixed-design ANOVAs with 113 dose (between-groups) and 5-min bins (repeated measures) as factors. […]

[2] = target: human D3 dopamine receptor (Homo sapiens (Human), UniProt P35462); test: Radioligand binding (125I-IABN competition), D3; details: 125I-IABN competition, HEK cell membranes expressing human D3
Description: (§2) The affinities of the target compounds were determined using radioligand binding experiments. […] Competition curves were modeled for a single site. Data from competition dose-response curves were analyzed using Tablecurve program (Jandel). IC50 values were converted to equilibrium dissociation constants (Ki values) using the Cheng and Prusoff correction.

[3] = test system: Long Evans rats; test: Food self-administration under PR schedule of reinforcement; format: in vivo, rat; details: 3.75 mg dose vs 0; t(7)=0.43, p=0.66
Description: These studies were performed using Long Evans rats using standard protocols. Training and testing took place in ventilated and sound-attenuated operant chambers measuring 30×21×18 cm. Each chamber contained two levers, one light above each of the levers, and a food trough. Each lever was positioned 2.5 cm from the rod floor and the food trough (measuring 5×5 cm) was centered between the two levers. A different set of animals (n=8) was trained to press a lever reinforced by food under a FR1 schedule of reinforcement. […] Percentage of baseline BPs for food self-administration was analyzed using a dependent measures t-test comparing the 0 and 3.75 mg doses of 113.

[4] = target: D2LR (Homo sapiens (Human), UniProt P14416); test: β-Arrestin Recruitment Assay, CHO-K1 DRD2L; format: cell-based; details: antagonist vs EC80 6 nM Pergolide, CHO-K1 DRD2L cells; read-out: D2 IC50
Description: Antagonist potency of the compounds against agonist induced recruitment of β-arrestin by D3R and D2LR was measured using DiscoverRx PathHunter eXpress kits. […] After incubation at 37° C. for 90 min, the DiscoveRx detection reagent was added, the plates were incubated at room temperature for 60 min and the luminescence was measured on a Synergy 4 plate reader (BioTek). The data were plotted and the agonist EC80 values were calculated using GraphPad Prism software. For antagonist activity, the cells were plated as described above and treated with multiple concentrations (starting from 500 nM, half log dilution, 10 dose points) of the test compounds in Plating Reagent with 0.1% DMSO.

[5] = target: D3R (Homo sapiens (Human), UniProt P35462); test: [35S]GTPγS Binding Assay, CHO D3 membranes; format: biochemical; details: antagonist vs dopamine; Ke = functional Ki; read-out: CHO-hD3 Ke
Description: Chinese hamster ovary (CHO) cells expressing human D2L and D3 receptors served as the source for membrane fractions which were washed and resuspended with assay buffer containing Mg^2+, Na^+, EGTA, and bovine serum albumin. […] After preincubation with test compounds, cell membranes and GDP for 15 minutes at 30° C. in a shaking water bath, [^35S]GTPγS was added and incubation proceeded for an additional 45 minutes. Cell membranes were harvested on Brandel GF/B filtermats with a 24-pin Brandel harvester (Biomedical Research & Development Laboratories, Inc., Gaithersburg, Md.). […] Antagonist activity was assessed by testing a fixed concentration of the test compound and varying concentration of the agonist, dopamine (0.001-100 μM for CHO D2 and 0.1 nM-10 uM for CHO D3).

[6] = target: human D2L receptors (Homo sapiens (Human), UniProt P14416); test: [35S]GTPγS Binding Assay, CHO D2 membranes; format: biochemical; details: antagonist vs dopamine; Ke = functional Ki; read-out: CHO-hD2 Ke
Description: Chinese hamster ovary (CHO) cells expressing human D2L and D3 receptors served as the source for membrane fractions which were washed and resuspended with assay buffer containing Mg^2+, Na^+, EGTA, and bovine serum albumin. The GTPγS binding assays were performed in a final volume of 0.5 mL for CHO D2 and 1 mL for CHO D3 containing test drug or dopamine (1 mM for D2 cells, and 100 μM for D3 cells) as indicator of binding plateau, [^35S]GTPγS (0.11 nM for CHO D2 and 0.07 nM for CHO D3, 1,250 Ci/mmole, Perkin Elmer, Boston, Mass. 02118); and cell membrane suspension (in assay buffer and GDP for final concentration of 3 μM for CHO D2 and 6 μM for CHO D3). […] The plateau binding (maximal binding stimulation) with test compound was expressed as percent of maximal binding observed with the full agonist dopamine (% Emax). Antagonist activity was assessed by testing a fixed concentration of the test compound and varying concentration of the agonist, dopamine (0.001-100 μM for CHO D2 and 0.1 nM-10 uM for CHO D3). Ke is the functional Ki (equilibrium dissociation constant) of an antagonist and is calculated according to the equation: [Test Compound]/(EC50-2/EC50-1−1), where EC50-2 is the EC50 value in the presence of the test compound and EC50-1 is the value in the absence of the test compound.

[7] = target: human D2-long dopamine receptor (Homo sapiens (Human), UniProt P14416); test: Radioligand binding (125I-IABN competition), D2; details: HEK cell membranes expressing human D2-long
Description: as §2

[8] = test system: Long Evans rats; test: Cocaine-induced locomotor activity; format: in vivo, rat; details: 3.75, 7.5 or 15 mg/kg 10 minutes before 10 mg/kg cocaine; p<0.05
Description: as §1

Chain of human D3 dopamine receptor (P35462 whole entry): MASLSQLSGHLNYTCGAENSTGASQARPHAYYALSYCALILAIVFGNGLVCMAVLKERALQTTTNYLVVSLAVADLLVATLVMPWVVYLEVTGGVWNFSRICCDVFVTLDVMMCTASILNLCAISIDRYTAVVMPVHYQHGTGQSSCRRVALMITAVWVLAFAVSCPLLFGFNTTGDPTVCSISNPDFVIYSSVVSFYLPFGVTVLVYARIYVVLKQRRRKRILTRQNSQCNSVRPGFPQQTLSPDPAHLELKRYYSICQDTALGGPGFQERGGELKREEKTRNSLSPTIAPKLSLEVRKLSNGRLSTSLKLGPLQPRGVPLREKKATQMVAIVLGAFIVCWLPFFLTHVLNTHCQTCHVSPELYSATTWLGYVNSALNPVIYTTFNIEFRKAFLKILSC
Chain of D3R (P35462 whole entry): as above
Chain of human D2L receptors (P14416 whole entry): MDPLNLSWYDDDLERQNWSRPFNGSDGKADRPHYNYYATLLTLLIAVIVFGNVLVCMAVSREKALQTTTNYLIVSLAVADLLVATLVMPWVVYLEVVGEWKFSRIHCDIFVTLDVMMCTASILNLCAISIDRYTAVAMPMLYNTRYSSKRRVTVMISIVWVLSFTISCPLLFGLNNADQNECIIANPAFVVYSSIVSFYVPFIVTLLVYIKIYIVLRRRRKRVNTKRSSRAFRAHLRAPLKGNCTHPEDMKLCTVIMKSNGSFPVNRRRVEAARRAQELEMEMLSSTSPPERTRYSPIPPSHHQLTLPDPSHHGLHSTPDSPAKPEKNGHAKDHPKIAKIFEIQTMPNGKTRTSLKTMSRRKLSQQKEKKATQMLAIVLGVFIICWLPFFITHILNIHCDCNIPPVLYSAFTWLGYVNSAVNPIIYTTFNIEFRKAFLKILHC
Chain of D2LR (P14416 whole entry): as above
Chain of human D2-long dopamine receptor (P14416 whole entry): as above

Ki [2]: 4.2 ± 0.6 nM | IC50 [4]: 261 ± 54 nM | Ki [5]: 1.32 ± 0.35 nM | Ki [6]: 111 ± 25 nM | Ki [7]: 511 ± 65.6 nM
SMILES: CC(C)(C)c1nc(N2CCN(CCCCNC(=O)c3cn4ccccc4n3)CC2)cc(C(F)(F)F)n1 [Compound 113, N-(4-(4-(2-(tert-Butyl)-6-(trifluoromethyl)pyrimidin-4-yl)piperazin-1-yl)butyl)imidazo[1,2-a]pyridine-2-carboxamide]
spontaneous locomotor activity ([1]; 3.75 mg dose): had no effect on spontaneous locomotor activity | spontaneous locomotor activity ([1]; 7.5 and 15 mg doses): appeared to reduce locomotor activity in the first 5 minutes of testing but did not affect activity after that | percentage of baseline BPs for food self-administration under PR schedule [3]: did not affect food self-administration | cocaine-induced locomotor activity [8]: significantly reduce cocaine-induced locomotor activity in a dose-related fashion
